The record followed here is ChEMBL document CHEMBL1140201, “Insights into ligand-elicited activation of human constitutive androstane receptor based on novel agonists and three-dimensional quantitative structure-activity relationship” (J Med Chem, 2008).

What all share (format): cell-based
Data set [1] addresses T1, CAR (NR1I3) ligand-binding domain, wild type (Homo sapiens, UniProt Q14994).
T1 sequence (Q14994 whole entry): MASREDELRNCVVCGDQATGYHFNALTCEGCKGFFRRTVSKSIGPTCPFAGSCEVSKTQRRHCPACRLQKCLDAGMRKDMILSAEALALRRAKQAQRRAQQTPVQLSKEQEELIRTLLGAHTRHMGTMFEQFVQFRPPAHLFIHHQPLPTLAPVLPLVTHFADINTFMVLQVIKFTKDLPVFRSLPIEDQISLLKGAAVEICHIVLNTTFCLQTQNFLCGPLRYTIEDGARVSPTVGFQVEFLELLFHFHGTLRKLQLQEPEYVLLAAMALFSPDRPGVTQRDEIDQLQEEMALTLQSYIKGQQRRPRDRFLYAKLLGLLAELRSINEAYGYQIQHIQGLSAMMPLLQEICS
The data set is described as follows: Activation of human CAR-LBD expressed in human C3A cells at 10 uM after 24 hrs by GAL4-dependent luciferase reporter gene assay relative to control. To be noted: C3A cells expressing human CAR-LBD, read-out: FC. (Reporter assays use an easily measured gene product as a stand-in for the process of interest.)

Data set [2] concerns the target T2, CAR (NR1I3) Phe161Ala mutant (Homo sapiens, UniProt Q14994, F161A). The data set is described as follows: Activation of human CAR Phe161Ala mutant expressed in human C3A cells at 10 uM after 24 hrs by GAL4-dependent luciferase reporter gene assay relative to control. To be noted: C3A cells expressing human CAR Phe161Ala mutant, read-out: FC.
The target in data set [3] is T3, CAR (NR1I3) Ile164Ala mutant (Homo sapiens, UniProt Q14994, I164A). Kind of data set: Activation of human CAR Ile164Ala mutant expressed in human C3A cells at 10 uM after 24 hrs by GAL4-dependent luciferase reporter gene assay relative to control. As to conditions: C3A cells expressing human CAR Ile164Ala mutant, read-out: FC.
The target in data set [4] is T4, CAR (NR1I3) His203Ala mutant (Homo sapiens, UniProt Q14994, H203A). The data set is described as follows: Activation of human CAR His203Ala mutant expressed in human C3A cells at 10 uM after 24 hrs by GAL4-dependent luciferase reporter gene assay relative to control. To be noted: C3A cells expressing human CAR His203Ala mutant, read-out: FC.
In data set [5] the target is T5, CAR (NR1I3) Asn165Ala mutant (Homo sapiens, UniProt Q14994, N165A). The data set is described as follows: Activation of human CAR Asn165Ala mutant expressed in human C3A cells at 10 uM after 24 hrs by GAL4-dependent luciferase reporter gene assay relative to control. To be noted: C3A cells expressing human CAR Asn165Ala mutant, read-out: FC.
The target of data set [6] is T1, CAR (NR1I3) ligand-binding domain, wild type. Kind of data set: Activation of human CAR-LBD expressed in human C3A cells at 4 uM after 24 hrs by GAL4-dependent luciferase reporter gene assay relative to control. To be noted: C3A cells expressing human CAR-LBD, read-out: FC.
Data set [7] has as its target T2, CAR (NR1I3) Phe161Ala mutant. The data set is described as follows: Activation of human CAR Phe161Ala mutant expressed in human C3A cells at 4 uM after 24 hrs by GAL4-dependent luciferase reporter gene assay relative to control. As to conditions: C3A cells expressing human CAR Phe161Ala mutant, read-out: FC.
Data set [8] has as its target T3, CAR (NR1I3) Ile164Ala mutant. The data set is described as follows: Activation of human CAR Ile164Ala mutant expressed in human C3A cells at 4 uM after 24 hrs by GAL4-dependent luciferase reporter gene assay relative to control. As to conditions: C3A cells expressing human CAR Ile164Ala mutant, read-out: FC.
The target of data set [9] is T5, CAR (NR1I3) Asn165Ala mutant. The data set is described as follows: Activation of human CAR Asn165Ala mutant expressed in human C3A cells at 4 uM after 24 hrs by GAL4-dependent luciferase reporter gene assay relative to control. To be noted: C3A cells expressing human CAR Asn165Ala mutant, read-out: FC.
The target of data set [10] is T4, CAR (NR1I3) His203Ala mutant. The data set is described as follows: Activation of human CAR His203Ala mutant expressed in human C3A cells at 4 uM after 24 hrs by GAL4-dependent luciferase reporter gene assay relative to control. To be noted: C3A cells expressing human CAR His203Ala mutant, read-out: FC.

T3 sequence (Q14994 whole entry I164A, the tested form may be a part): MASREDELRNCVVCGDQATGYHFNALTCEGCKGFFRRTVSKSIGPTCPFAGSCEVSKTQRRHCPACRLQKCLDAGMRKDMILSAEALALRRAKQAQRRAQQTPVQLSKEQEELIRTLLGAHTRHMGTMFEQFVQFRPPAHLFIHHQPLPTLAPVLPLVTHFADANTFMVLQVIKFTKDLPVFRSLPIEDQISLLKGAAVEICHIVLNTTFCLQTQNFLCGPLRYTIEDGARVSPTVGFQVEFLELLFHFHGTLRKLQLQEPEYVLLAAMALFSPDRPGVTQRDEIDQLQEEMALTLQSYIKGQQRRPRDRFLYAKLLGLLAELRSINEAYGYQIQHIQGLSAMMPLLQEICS
T4 sequence (Q14994 whole entry H203A, the tested form may be a part): as the sequence (Q14994 whole entry I164A, the tested form may be a part) above, with A164I, H203A counted along it
T5 sequence (Q14994 whole entry N165A, the tested form may be a part): as the sequence (Q14994 whole entry I164A, the tested form may be a part) above, with A164I, N165A counted along it
T2 sequence (Q14994 whole entry F161A, the tested form may be a part): as the sequence (Q14994 whole entry I164A, the tested form may be a part) above, with F161A, A164I counted along it

As to `O=C1CS[C@H](c2ccncc2)N1Cc1nc2ccccc2[nH]1`, the fold induction at 24 h, 10 µM in data set [1] is 1.4; in [2] it was 1.3; in data set [3] it was 1.13; in data set [4], 1.24; in data set [5] it was 1.19.
Taken in the same sequence, the figures for `Cc1ccc(NC(=O)NC2CCC2)cc1C` were 1.37, 1.15, 1.37, 1.53 and 1.33.
Taken in the same sequence, the figures for `O=S(=O)(Nc1nc2c(s1)CCCC2)c1ccc(Br)s1` were 1.32, 1, 1.06, 1.18 and 1.01.
Taken in the same sequence, the figures for `CC(C)c1ccc(OP(=O)(Oc2ccc(C(C)C)cc2)Oc2ccc(C(C)C)cc2)cc1` were 2.45, 1.06, 1.67, 6.76 and 2.66.
Regarding `Clc1ccccc1C(c1ccccc1)(c1ccccc1)n1ccnc1` [CLOTRIMAZOLE], the fold induction at 24 h, 4 µM in data set [6] is 4.34; in [7] it was 13.1; in data set [8], 21.3; in data set [9], 4.47; in data set [10], 0.21.
Regarding `O=P(Oc1ccccc1)(Oc1ccccc1)Oc1ccccc1` [TRIPHENYL PHOSPHATE], the fold induction at 24 h, 10 µM in [1] is 3.96; in data set [2], 0.82; in data set [3], 6.42; in data set [4], 2.79; in data set [5] it was 3.01.
